Laboratory results as given in ChEMBL document CHEMBL1208756, “LuxR-dependent quorum sensing: computer aided discovery of new inhibitors structurally unrelated to N-acylhomoserine lactones” (Bioorg Med Chem Lett, 2010).
Activity calls are given as the source filed them. The rule behind the calls is not given here.

Tests used:
[1] = target: T1, Transcriptional activator protein LuxR (Aliivibrio fischeri) (UniProt P12746); test: Induction of LuxR-dependent quorum sensing in Vibrio fischeri assessed as induction of bioluminescence intensity up to 200 uM
T1 sequence (whole entry): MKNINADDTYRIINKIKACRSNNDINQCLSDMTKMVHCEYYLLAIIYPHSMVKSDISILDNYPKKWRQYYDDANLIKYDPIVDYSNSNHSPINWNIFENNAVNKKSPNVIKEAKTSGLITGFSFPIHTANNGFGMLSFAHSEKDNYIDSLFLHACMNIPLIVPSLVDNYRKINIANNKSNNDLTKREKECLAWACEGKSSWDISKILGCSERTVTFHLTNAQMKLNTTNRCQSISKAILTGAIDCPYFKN

[2] = target: T2, Transcriptional activator protein LuxR (Aliivibrio fischeri, UniProt P12746); test: Inhibition of LuxR-dependent quorum sensing in Vibrio fischeri assessed as reduction of 3-oxo-C6-HSL-induced bioluminescence intensity
T2 sequence (P12746 whole entry): T1 sequence (whole entry)

[3] = target: T1, Transcriptional activator protein LuxR (Aliivibrio fischeri); test: Inhibition of LuxR-dependent quorum sensing in Vibrio fischeri assessed as reduction of 3-oxo-C6-HSL-induced bioluminescence intensity at 40 uM
[4] = target: T1, Transcriptional activator protein LuxR (Aliivibrio fischeri); test: Inhibition of LuxR-dependent quorum sensing in Vibrio fischeri assessed as reduction of 3-oxo-C6-HSL-induced bioluminescence intensity at 20 uM

Row | SMILES | Activity [1] | IC50 [2] [µM] | inhibition [3] [%] | inhibition [4] [%]
1 | Clc1ccc(C(c2ccc(Cl)cc2)[n+]2ccn(CC(OCc3ccc(Cl)cc3Cl)c3ccc(Cl)cc3Cl)c2)cc1 (centres undefined) | inactive |  |  | 
2 | Clc1ccc(C(c2ccc(Cl)cc2)n2cc[n+](CC(OCc3ccc(Cl)cc3Cl)c3ccc(Cl)cc3Cl)c2)cc1 (centres undefined) [CALMIDAZOLIUM CHLORIDE] |  | 7 |  | 
3 | CC(NCCC(c1ccccc1)c1ccccc1)c1ccccc1 (centres undefined) [FENDILINE] | inactive | 91 |  | 
4 | CN1CCC(=C2c3ccccc3Sc3ccccc32)CC1 [PIMETHIXENE] | inactive | 56 |  | 
5 | CN[C@H]1CC[C@@H](c2ccc(Cl)c(Cl)c2)c2ccccc21 [SERTRALINE] | inactive | 27 |  | 
6 | CC/C(=C(\c1ccccc1)c1ccc(OCCN(C)C)cc1)c1ccccc1 [TAMOXIFEN] | inactive | 40 | 53 | 73.6
7 | CC(C)(C)c1ccc(C(O)CCCN2CCC(C(O)(c3ccccc3)c3ccccc3)CC2)cc1 (centres undefined) [TERFENADINE] | inactive | 92 |  | 
